Measurements reported in patent publication US7572831B2, “Composition containing chalcone” (Angiolab, Inc., priority 2002, dated 2009).

Assays:
[1] = tested on: experimentally induced comedones; experiment: Comedolysis by EIC (experimentally induced comedones) formation; format: in vivo, New Zealand white rabbits; conditions: topical once a day, 3 weeks
Description: Effects of chalcone on comedolysis were studied using subjects of ten mature New Zealand white rabbits, which were bred to approximately 2 kg of body weight for several weeks. In order to generate EIC, 50% oleic acid in polyethylene glycol was applied to both ears of rabbits for 2 weeks. The experimental agent was applied to the ventral surface near the auditory canal once a day with the tip of a cotton stick. 18 ears of rabbits were divided into three groups, and only one of ethanol-propylene glycol (1:1) (control), 1% chalcone in ethanol-propylene glycol (1:1), or 5% chalcone in ethanol-propylene glycol (1:1) was applied on each groups for 3 weeks. The remaining 2 ears were left untreated. Biopsy specimens were taken at 3 week by punch and specimens were fixed in 10% formalin solution and embedded in paraffin for light microscopic examination. Sections of 5 μm thickness were cut and hematoxylin and eosin stain were performed. Under light microscope, fairly large comedones were formed showing hyperplasia and hyperkeratosis of epithelium in specimen treated with vehicle only. The formation of comedones decreased in specimen treated with 1% or 5% of chalcone.

[2] = tested on: UVB-induced wrinkle formation; experiment: Skin photoaging, UVB-induced wrinkle formation; format: in vivo, albino hairless HOS:HR1 mice; conditions: topical, 15 week
Description: Effects of chalcone on skin photoaging were studied using mouse skin wrinkle induced by UV irradiation. 6-week male albino hairless HOS:HR1 mice were used for wrinkle formation induced by long-term repeated UVB irradiation. Wrinkles were formed according to the modified method described by Bissett et al (Photochem Photobiol 46: 367-378, 1987) The dose was set at 60 mJ per cm^2 for 4 weeks and increased to 120 mJ per cm^2 for 11 weeks. The frequency of irradiation was set at three times per week. In this protocol, wrinkles began to be observed macroscopically in the dorsal region from about 8 week after initiation of irradiation, and deep wrinkles were formed at 12 week. 30 hairless mice were divided into three groups, and only one of ethanol-propylene glycol (7:3) (control), 1% chalcone in ethanol-propylene glycol (7:3), or 5% chalcone in ethanol-propylene glycol (7:3) was applied on each groups for 15 weeks. 100 μl of the experimental agent was applied to the dorsal region three times weekly just after UVB exposure. At 15 week after initiation of repeated UVB irradiation, each hairless mouse was anesthetized, and the degree of wrinkle formation was evaluated according to Table 3. […] [table]

TPA-induced ear edema = TPA-induced ear edema model; format: in vivo, ICR mouse
Experimental: To observe the anti-inflammatory effects of chalcone or its derivatives edema was induced in the ear by topical application of 10 ul of TPA (Tetradecanoylphorbol acetate) in acetone (2.5 ug/ear) to both the inner and outer surface of one ear of each 6-week-old ICR mouse. 5% of Chalcone or its derivatives diluted with acetone were applied separately to each ear topically immediately after TPA. The reference drug, indomethacin (0.5 mg/ear), was administered as a positive control. Ear thickness was measured before and 4 hours after treatment with the irritant using a micrometer (Mitutoyo Co.). Ear thickness was expressed as the mean of the difference between thickness before and after challenge. Inhibition ratio percentage of edema was expressed as the reduction in thickness with respect to the control treated only with TPA. As shown in FIG. 6 and Table 2, chalcone or its derivatives suppressed the TPA-induced ear edema.

MMP-9 = biological target: T1, MMP-9 (Homo sapiens, UniProt P14780); experiment: MMP-9 spectrofluorometric enzyme activity assay; format: biochemical; conditions: 50 μM compound; read-out: MMP-9 activity inhibited
T1 construct: made in house; host or cells: Sf21 insect cells, baculovirus (pBlueBac4.5)
Experimental: MMP-1, MMP-2, MMP-9 and MMP-13 were cloned and prepared from insect cells (Sf21 insect cell) by using a Baculovirus system.
Each cDNA for corresponding MMPs was cloned to a pBlueBac4.5 transfer vector (Invitrogen, Cat no. V1995-20), and then transfected to Sf21 cells with a Bac-N-Blue Transfection Kit (Invitrogen, Cat no. K855-01). Sf21 cells were incubated with a TNM-FH (Sigma, St. Louis, Mo., U.S.A) media containing 10% fetal bovine serum at 27° C., then harvested and re-suspended at a concentration of 10^7 cell/Ml. The cell suspension was incubated with a virus containing the cloned gene for 1 hr at room temperature. Infected Sf21 cells were grown for 72 hrs and the medium was recovered, and the MMP was purified. MMP-2 (GENEBANK No. XM—048244) and MMP-9 (GENEBANK No. XM—009491) were recovered from a gelatin-sepharose affinity column (Sigma, G5384) by eluting with 5% DMSO-containing buffer. […]
As a control, 2 Ml of reaction buffer (50 mM Tricine, pH 7.5, 10 mM CaCl2, 200 mM NaCl) comprising DMSO, 10 nM of enzyme and 10 μM of substrate was prepared in a cuvette. Fluorescence intensity was measured for 5-10 min at room temperature with a spectrofluorometer.
50 μM Chalcone or its derivatives were added to a reaction buffer containing a substrate and enzyme, and fluorescence intensity was measured in the same manner.

[3] = Skin sensitization by human patch test; format: in vivo; conditions: interpretation of skin average reactivity
Experimental: The effect of chalcone on skin sensitization was studied by general method of skin patch test. The skin patch test was done against human subjects of ten adults. Test patch (2 cm×2 cm) included 0.2 ml of cream containing 0.01%-1.0% chalcone. The patches were applied to the backs of subjects. The patch was removed after 48 hours or 96 hours, and the skin responses of subjects were recorded and evaluated as shown in Table 4. The skin average reactivity calculated by equation 1 was interpreted as the degree of skin sensitivity in Table 5. According to the skin patch test, chalcone was nonreactive to skin sensitization (Table 6).

T1 sequence (P14780 107-707 limits assumed): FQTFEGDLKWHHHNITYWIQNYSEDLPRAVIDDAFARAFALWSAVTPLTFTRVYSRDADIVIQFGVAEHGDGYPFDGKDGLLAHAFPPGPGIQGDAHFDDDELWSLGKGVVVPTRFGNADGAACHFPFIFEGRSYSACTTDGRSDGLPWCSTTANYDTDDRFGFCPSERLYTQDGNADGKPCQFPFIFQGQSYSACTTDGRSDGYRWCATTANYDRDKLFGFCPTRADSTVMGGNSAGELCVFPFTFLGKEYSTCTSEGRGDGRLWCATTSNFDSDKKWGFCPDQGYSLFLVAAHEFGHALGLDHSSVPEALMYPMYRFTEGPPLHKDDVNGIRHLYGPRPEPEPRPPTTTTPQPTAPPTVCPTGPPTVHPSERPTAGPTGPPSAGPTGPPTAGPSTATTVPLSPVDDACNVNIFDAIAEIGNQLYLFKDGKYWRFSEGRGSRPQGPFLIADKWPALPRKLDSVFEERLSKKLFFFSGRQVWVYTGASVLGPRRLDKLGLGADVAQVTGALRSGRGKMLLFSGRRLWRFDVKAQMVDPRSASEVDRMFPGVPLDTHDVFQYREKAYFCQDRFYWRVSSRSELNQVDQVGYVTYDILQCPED

In the case of `O=C(/C=C/c1ccccc1)c1ccccc1` [Chalcone], the Formation of comedones ([1]; 1% chalcone in ethanol-propylene glycol (1:1)) is reported as “decreased”, the Formation of comedones ([1]; 5% chalcone in ethanol-propylene glycol (1:1)) is reported as “decreased” and the “UVB-induced wrinkle formation vs vehicle-treated group” value ([2]; 1% chalcone in ethanol-propylene glycol (7:3)) is reported as “significantly inhibited”. For the same molecule, the “UVB-induced wrinkle formation vs vehicle-treated group” value ([2]; 5% chalcone in ethanol-propylene glycol (7:3)) was “significantly inhibited”, the “Inhibition ratio (%) of ear edema” value (TPA-induced ear edema; topical 5% in acetone (indomethacin 0.5 mg/ear), 4 hours after TPA) was 69.3% and the “Δ Ear thickness (um ± S.D)” value (TPA-induced ear edema; topical 5% in acetone (indomethacin 0.5 mg/ear), 4 hours after TPA, TPA control 176 ± 35) was 54 ± 22 um. For the same molecule, the “Relative potency among chalcone or its derivatives on ear edema” value (TPA-induced ear edema; topical 5%, TPA-induced ear edema) was “greatest potency”, the inhibition at 50 µM (MMP-9) was roughly 76% and the “Result of skin patch test (degree of skin sensitivity)” value [3] was “nonreactive (0.0-0.9)”.
